Assays:
[1] = tested on: velvetleaf; test: Test Example 4: herbicidal effect by soil treatment (Table 19, symbol M); type: in vivo, velvetleaf (Abutilon theophrasti)
In short: (§1)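 Scoring uses the grading scale of an earlier test, three weeks post-application. Treatment consists of spraying a diluted emulsion formulation across the surface of sterilized diluvial soil in which seeds are buried near 1.5 cm deep; boxes are kept in a greenhouse between 25° C. and 30° C.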

[2] = tested on: late watergrass; test: Test Example 2: herbicidal activity, application during weed generation under submerged conditions (Table 17, symbol A); type: in vivo, late watergrass (Echinochloa oryzicola); details: AAH 320 g/ha; application during weed generation, submerged conditions
In short: (§2)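 3-wk visual-criteria score after one water-surface dose. Emulsion formulation, water-diluted to set rate; applied at 1–2 leaf stage; alluvial soil, 4 cm standing water; seeds co-sown; greenhouse 25–30° C.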

[3] = tested on: persian speedwell; test: Test Example 4: herbicidal effect by soil treatment (Table 19, symbol R); type: in vivo, Persian speedwell (Veronica persica)
In short: as §1

[4] = tested on: southern crabgrass; test: Test Example 5: herbicidal effect by foliage application, plastic box (Table 20, symbol F); type: in vivo, southern crabgrass (Digitaria ciliaris); details: foliage application, 320 g/ha, evaluated three weeks after application
In short: (§3)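 Post-emergence foliar test in sterilized diluvial soil. Compound applied as water-diluted emulsion at a predetermined rate to 14-day-old plants; evaluation at three weeks.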

[5] = tested on: Chinese sprangletop; test: Test Example 3: herbicidal effect by foliage application, Wagner pot (Table 18, symbol D); type: in vivo, chinese sprangletop (Leptochloa chinensis)
In short: (§4)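 Plants were sown in alluvial soil held under 0.1–0.5 cm standing water and grown 14 days in a greenhouse at 25–30 °C. An emulsifiable formulation, water-diluted to the set dose, was then sprayed onto the foliage, and effects were scored three weeks later using previously defined criteria.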

[6] = tested on: persian speedwell; test: Test Example 5: herbicidal effect by foliage application, plastic box (Table 20, symbol R); type: in vivo, Persian speedwell (Veronica persica); details: foliage application, 320 g/ha, evaluated three weeks after application
In short: as §3

[7] = tested on: chickweed; test: Test Example 5: herbicidal effect by foliage application, plastic box (Table 20, symbol P); type: in vivo, common chickweed (Stellaria media); details: foliage application, 320 g/ha, evaluated three weeks after application
In short: as §3

[8] = tested on: blackgrass; test: Test Example 4: herbicidal effect by soil treatment (Table 19, symbol J); type: in vivo, blackgrass (Alopecurus myosuroides)
In short: as §1

[9] = tested on: Italian ryegrass; test: Test Example 5: herbicidal effect by foliage application, plastic box (Table 20, symbol K); type: in vivo, Italian ryegrass (Lolium multiflorum); details: foliage application, 320 g/ha, evaluated three weeks after application
In short: as §3

[10] = tested on: windgrass; test: Test Example 4: herbicidal effect by soil treatment (Table 19, symbol L); type: in vivo, windgrass (Apera spica-venti)
In short: as §1

[11] = tested on: chickweed; test: Test Example 4: herbicidal effect by soil treatment (Table 19, symbol P); type: in vivo, common chickweed (Stellaria media)
In short: as §1

[12] = tested on: barnyard grass; test: Test Example 4: herbicidal effect by soil treatment (Table 19, symbol H); type: in vivo, barnyard grass (Echinochloa crus-galli)
In short: as §1

[13] = tested on: redroot pigweed; test: Test Example 5: herbicidal effect by foliage application, plastic box (Table 20, symbol N); type: in vivo, redroot pigweed (Amaranthus retroflexus); details: foliage application, 320 g/ha, evaluated three weeks after application
In short: as §3

[14] = tested on: oval-leafed pondweed; test: Test Example 2: herbicidal activity, application during weed generation under submerged conditions (Table 17, symbol C); type: in vivo, oval-leafed pondweed (Monochoria vaginalis); details: AAH 320 g/ha; application during weed generation, submerged conditions
In short: as §2

[15] = tested on: Italian ryegrass; test: Test Example 4: herbicidal effect by soil treatment (Table 19, symbol K); type: in vivo, Italian ryegrass (Lolium multiflorum)
In short: as §1

[16] = tested on: barnyard grass; test: Test Example 3: herbicidal effect by foliage application, Wagner pot (Table 18, symbol H); type: in vivo, barnyard grass (Echinochloa crus-galli)
In short: as §4

[17] = tested on: Japanese bulrush; test: Test Example 2: herbicidal activity, application during weed generation under submerged conditions (Table 17, symbol B); type: in vivo, Japanese bulrush (Schoenoplectus juncoides); details: AAH 320 g/ha; application during weed generation, submerged conditions
In short: as §2

[18] = tested on: wild oat; test: Test Example 4: herbicidal effect by soil treatment (Table 19, symbol I); type: in vivo, wild oat (Avena fatua)
In short: as §1

[19] = tested on: green foxtail; test: Test Example 4: herbicidal effect by soil treatment (Table 19, symbol G); type: in vivo, green foxtail (Setaria viridis)
In short: as §1

[20] = tested on: green foxtail; test: Test Example 5: herbicidal effect by foliage application, plastic box (Table 20, symbol G); type: in vivo, green foxtail (Setaria viridis); details: foliage application, 320 g/ha, evaluated three weeks after application
In short: as §3

[21] = tested on: blackgrass; test: Test Example 5: herbicidal effect by foliage application, plastic box (Table 20, symbol J); type: in vivo, blackgrass (Alopecurus myosuroides); details: foliage application, 320 g/ha, evaluated three weeks after application
In short: as §3

[22] = tested on: rice flat sedge; test: Test Example 3: herbicidal effect by foliage application, Wagner pot (Table 18, symbol E); type: in vivo, rice flat sedge (Cyperus iria)
In short: as §4

[23] = tested on: wild oat; test: Test Example 5: herbicidal effect by foliage application, plastic box (Table 20, symbol I); type: in vivo, wild oat (Avena fatua); details: foliage application, 320 g/ha, evaluated three weeks after application
In short: as §3

[24] = tested on: velvetleaf; test: Test Example 5: herbicidal effect by foliage application, plastic box (Table 20, symbol M); type: in vivo, velvetleaf (Abutilon theophrasti); details: foliage application, 320 g/ha, evaluated three weeks after application
In short: as §3

[25] = tested on: windgrass; test: Test Example 5: herbicidal effect by foliage application, plastic box (Table 20, symbol L); type: in vivo, windgrass (Apera spica-venti); details: foliage application, 320 g/ha, evaluated three weeks after application
In short: as §3

[26] = tested on: barnyard grass; test: Test Example 5: herbicidal effect by foliage application, plastic box (Table 20, symbol H); type: in vivo, barnyard grass (Echinochloa crus-galli); details: foliage application, 320 g/ha, evaluated three weeks after application
In short: as §3

[27] = tested on: southern crabgrass; test: Test Example 4: herbicidal effect by soil treatment (Table 19, symbol F); type: in vivo, southern crabgrass (Digitaria ciliaris)
In short: as §1

[28] = tested on: redroot pigweed; test: Test Example 4: herbicidal effect by soil treatment (Table 19, symbol N); type: in vivo, redroot pigweed (Amaranthus retroflexus)
In short: as §1

[29] = tested on: lambsquarters; test: Test Example 5: herbicidal effect by foliage application, plastic box (Table 20, symbol O); type: in vivo, lambsquarters (Chenopodium album); details: foliage application, 320 g/ha, evaluated three weeks after application
In short: as §3

[30] = tested on: lambsquarters; test: Test Example 4: herbicidal effect by soil treatment (Table 19, symbol O); type: in vivo, lambsquarters (Chenopodium album)
In short: as §1

[31] = amount of applied herbicide 320 g/ha

| Compound | herbicidal effect rating, A: late watergrass [2] | herbicidal effect on F: southern crabgrass [4] | herbicidal effect on R: persian speedwell [6] | herbicidal effect on P: chickweed [7] | herbicidal effect on K: Italian ryegrass [9] | herbicidal effect on N: redroot pigweed [13] | herbicidal effect rating, C: oval-leafed pondweed [14] | herbicidal effect rating, B: Japanese bulrush [17] | herbicidal effect on G: green foxtail [20] | herbicidal effect on J: blackgrass [21] | herbicidal effect on I: wild oat [23] | herbicidal effect on M: velvetleaf [24] | herbicidal effect on L: windgrass [25] | herbicidal effect on H: barnyard grass [26] | herbicidal effect on O: lambsquarters [29] | further results |
| --- | --- | --- | --- | --- | --- | --- | --- | --- | --- | --- | --- | --- | --- | --- | --- | --- |
| Cc1nn(C)c(=O)c(-c2c(-c3ccc(OC4CCOC4)cc3)sc3ccc(F)cc23)c1O (stereo not drawn) [2-074] | 0 (Herbicidal rate of 5% or less (almost no effect)) | 5 (Herbicidal rate of 90% or more (almost completely withered)) | 5 (Herbicidal rate of 90% or more (almost completely withered)) | 5 (Herbicidal rate of 90% or more (almost completely withered)) | 4 (Herbicidal rate of 70% or more and less than 90%) | 5 (Herbicidal rate of 90% or more (almost completely withered)) | 0 (Herbicidal rate of 5% or less (almost no effect)) | 3 (Herbicidal rate of 40% or more and less than 70%) | 5 (Herbicidal rate of 90% or more (almost completely withered)) | 5 (Herbicidal rate of 90% or more (almost completely withered)) | 4 (Herbicidal rate of 70% or more and less than 90%) | 5 (Herbicidal rate of 90% or more (almost completely withered)) | 5 (Herbicidal rate of 90% or more (almost completely withered)) | 5 (Herbicidal rate of 90% or more (almost completely withered)) | 5 (Herbicidal rate of 90% or more (almost completely withered)) | herbicidal effect rating, M: velvetleaf ([1]; 320 g/ha): 3 (Herbicidal rate of 40% or more and less than 70%); herbicidal effect rating, R: persian speedwell ([3]; 320 g/ha): 5 (Herbicidal rate of 90% or more (almost completely withered)); herbicidal effect on D (Chinese sprangletop), rating 0-5 ([5]; 320 g/ha): 5 (Herbicidal rate of 90% or more (almost completely withered)); herbicidal effect rating, J: blackgrass ([8]; 320 g/ha): 1 (Herbicidal rate of 5% or more and less than 20%); herbicidal effect rating, L: windgrass ([10]; 320 g/ha): 3 (Herbicidal rate of 40% or more and less than 70%); herbicidal effect rating, P: chickweed ([11]; 320 g/ha): 3 (Herbicidal rate of 40% or more and less than 70%); herbicidal effect rating, H: barnyard grass ([12]; 320 g/ha): 5 (Herbicidal rate of 90% or more (almost completely withered)); herbicidal effect rating, K: Italian ryegrass ([15]; 320 g/ha): 3 (Herbicidal rate of 40% or more and less than 70%); herbicidal effect on H (barnyard grass), rating 0-5 ([16]; 320 g/ha): 5 (Herbicidal rate of 90% or more (almost completely withered)); herbicidal effect rating, I: wild oat ([18]; 320 g/ha): 0 (Herbicidal rate of 5% or less (almost no effect)); herbicidal effect rating, G: green foxtail ([19]; 320 g/ha): 5 (Herbicidal rate of 90% or more (almost completely withered)); herbicidal effect on E (rice flat sedge), rating 0-5 ([22]; 320 g/ha): 5 (Herbicidal rate of 90% or more (almost completely withered)); herbicidal effect rating, F: southern crabgrass ([27]; 320 g/ha): 5 (Herbicidal rate of 90% or more (almost completely withered)); herbicidal effect rating, N: redroot pigweed ([28]; 320 g/ha): 5 (Herbicidal rate of 90% or more (almost completely withered)); herbicidal effect rating, O: lambsquarters ([30]; 320 g/ha): 5 (Herbicidal rate of 90% or more (almost completely withered)) |
| COc1ccc(-c2sc3ccc(Cl)cc3c2-c2c(O)c(C)nn(C)c2=O)cc1F [2-117] | 0 (Herbicidal rate of 5% or less (almost no effect)) | 0 (Herbicidal rate of 5% or less (almost no effect)) | 5 (Herbicidal rate of 90% or more (almost completely withered)) | 5 (Herbicidal rate of 90% or more (almost completely withered)) | 0 (Herbicidal rate of 5% or less (almost no effect)) | 3 (Herbicidal rate of 40% or more and less than 70%) | 3 (Herbicidal rate of 40% or more and less than 70%) | 2 (Herbicidal rate of 20% or more and less than 40%) | 0 (Herbicidal rate of 5% or less (almost no effect)) | 0 (Herbicidal rate of 5% or less (almost no effect)) | 0 (Herbicidal rate of 5% or less (almost no effect)) | 4 (Herbicidal rate of 70% or more and less than 90%) | 0 (Herbicidal rate of 5% or less (almost no effect)) | 0 (Herbicidal rate of 5% or less (almost no effect)) | 3 (Herbicidal rate of 40% or more and less than 70%) | M: velvetleaf, herbicidal effect rating [1, 31]: 0 (Herbicidal rate of 5% or less (almost no effect)); R: persian speedwell, herbicidal effect rating [3, 31]: 1 (Herbicidal rate of 5% or more and less than 20%); herbicidal effect on D: Chinese sprangletop [5, 31]: 3 (Herbicidal rate of 40% or more and less than 70%); J: blackgrass, herbicidal effect rating [8, 31]: 0 (Herbicidal rate of 5% or less (almost no effect)); L: windgrass, herbicidal effect rating [10, 31]: 0 (Herbicidal rate of 5% or less (almost no effect)); P: chickweed, herbicidal effect rating [11, 31]: 0 (Herbicidal rate of 5% or less (almost no effect)); H: barnyard grass, herbicidal effect rating [12, 31]: 0 (Herbicidal rate of 5% or less (almost no effect)); K: Italian ryegrass, herbicidal effect rating [15, 31]: 0 (Herbicidal rate of 5% or less (almost no effect)); herbicidal effect on H: barnyard grass [16, 31]: 3 (Herbicidal rate of 40% or more and less than 70%); I: wild oat, herbicidal effect rating [18, 31]: 0 (Herbicidal rate of 5% or less (almost no effect)); G: green foxtail, herbicidal effect rating [19, 31]: 0 (Herbicidal rate of 5% or less (almost no effect)); herbicidal effect on E: rice flat sedge [22, 31]: 5 (Herbicidal rate of 90% or more (almost completely withered)); F: southern crabgrass, herbicidal effect rating [27, 31]: 0 (Herbicidal rate of 5% or less (almost no effect)); N: redroot pigweed, herbicidal effect rating [28, 31]: 1 (Herbicidal rate of 5% or more and less than 20%); O: lambsquarters, herbicidal effect rating [30, 31]: 3 (Herbicidal rate of 40% or more and less than 70%) |
